Assay results as given in ChEMBL document CHEMBL5442175, “EUbOPEN Chemogenomics Library - PDSP Secondary Binding” (2024).

What was measured:
[1] = target: T1, Alpha-1A adrenergic receptor (Homo sapiens, UniProt P35348); experiment: (§1) PDSP Secondary Binding target: ADRA1A - Compounds are tested at 10 uM concentration, plate are incubated at room temperature in the dark for 90 minutes. Reaction are stopped by vacuum filtration onto 0.3% polyethyleneimine soaked filter mats using Filtermate harvester. Scintillation cocktail is then melted onto microwave-dried filters on a hot plate and the radio activity is counted in Microbia counter.
T1 sequence (P35348 whole entry): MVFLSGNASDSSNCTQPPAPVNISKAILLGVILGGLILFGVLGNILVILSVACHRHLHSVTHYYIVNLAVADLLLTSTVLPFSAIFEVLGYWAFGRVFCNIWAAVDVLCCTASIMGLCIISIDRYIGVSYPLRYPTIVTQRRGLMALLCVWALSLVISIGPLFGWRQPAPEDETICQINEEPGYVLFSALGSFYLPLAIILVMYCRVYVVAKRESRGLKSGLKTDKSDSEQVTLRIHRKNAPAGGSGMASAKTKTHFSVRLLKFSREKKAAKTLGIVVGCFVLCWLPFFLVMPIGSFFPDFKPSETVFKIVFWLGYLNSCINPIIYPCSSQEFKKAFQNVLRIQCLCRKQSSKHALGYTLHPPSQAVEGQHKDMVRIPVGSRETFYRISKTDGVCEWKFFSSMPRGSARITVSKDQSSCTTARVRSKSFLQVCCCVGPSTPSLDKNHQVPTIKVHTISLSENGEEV

[2] = target: T2, 5-hydroxytryptamine receptor 2C (Homo sapiens, UniProt P28335); experiment: as §1, with “HTR2C” for “ADRA1A”
T2 sequence (P28335 whole entry): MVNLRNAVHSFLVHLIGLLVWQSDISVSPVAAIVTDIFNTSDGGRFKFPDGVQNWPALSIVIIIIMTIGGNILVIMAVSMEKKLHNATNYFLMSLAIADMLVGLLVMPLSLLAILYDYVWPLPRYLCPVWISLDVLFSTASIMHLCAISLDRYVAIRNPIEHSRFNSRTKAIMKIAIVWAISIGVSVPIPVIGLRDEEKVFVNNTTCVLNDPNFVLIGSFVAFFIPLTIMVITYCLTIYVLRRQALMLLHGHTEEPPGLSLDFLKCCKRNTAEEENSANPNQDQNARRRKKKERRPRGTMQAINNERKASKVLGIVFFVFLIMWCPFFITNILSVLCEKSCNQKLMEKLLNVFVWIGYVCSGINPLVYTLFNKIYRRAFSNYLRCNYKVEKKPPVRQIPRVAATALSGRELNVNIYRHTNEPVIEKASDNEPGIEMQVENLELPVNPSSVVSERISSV

[3] = target: T3, 5-hydroxytryptamine receptor 3A (Homo sapiens, UniProt P46098); experiment: as §1, with “HTR3A” for “ADRA1A”
T3 sequence (P46098 whole entry): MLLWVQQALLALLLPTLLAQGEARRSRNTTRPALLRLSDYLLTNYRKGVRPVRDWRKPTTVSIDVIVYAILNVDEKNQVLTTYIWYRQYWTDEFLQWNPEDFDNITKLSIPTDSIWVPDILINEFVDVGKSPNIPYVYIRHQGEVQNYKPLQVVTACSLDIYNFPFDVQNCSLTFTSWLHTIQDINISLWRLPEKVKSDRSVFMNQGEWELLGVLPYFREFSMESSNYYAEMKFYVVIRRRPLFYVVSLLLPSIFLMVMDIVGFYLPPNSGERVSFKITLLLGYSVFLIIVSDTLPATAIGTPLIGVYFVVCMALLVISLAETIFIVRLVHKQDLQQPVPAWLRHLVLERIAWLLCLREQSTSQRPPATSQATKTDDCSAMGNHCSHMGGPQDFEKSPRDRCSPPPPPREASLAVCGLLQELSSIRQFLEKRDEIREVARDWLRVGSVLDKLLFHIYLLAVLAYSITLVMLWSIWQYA

[4] = target: T4, Alpha-2C adrenergic receptor (Homo sapiens, UniProt P18825); experiment: as §1, with “ADRA2C” for “ADRA1A”
T4 sequence (P18825 whole entry): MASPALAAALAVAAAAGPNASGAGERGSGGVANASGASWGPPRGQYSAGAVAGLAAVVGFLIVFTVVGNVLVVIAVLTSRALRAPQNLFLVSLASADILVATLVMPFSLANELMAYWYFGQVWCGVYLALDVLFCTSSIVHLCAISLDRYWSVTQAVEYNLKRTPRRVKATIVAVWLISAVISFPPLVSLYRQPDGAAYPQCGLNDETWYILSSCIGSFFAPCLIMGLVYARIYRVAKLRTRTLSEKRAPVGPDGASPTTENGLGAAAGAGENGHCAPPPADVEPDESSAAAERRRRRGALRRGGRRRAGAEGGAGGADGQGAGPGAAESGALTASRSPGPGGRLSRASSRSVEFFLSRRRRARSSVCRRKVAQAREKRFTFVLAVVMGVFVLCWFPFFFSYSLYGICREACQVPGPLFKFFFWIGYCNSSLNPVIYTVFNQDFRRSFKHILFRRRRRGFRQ

[5] = target: T5, Alpha-2A adrenergic receptor (Homo sapiens, UniProt P08913); experiment: as §1, with “ADRA2A” for “ADRA1A”
T5 sequence (P08913 whole entry): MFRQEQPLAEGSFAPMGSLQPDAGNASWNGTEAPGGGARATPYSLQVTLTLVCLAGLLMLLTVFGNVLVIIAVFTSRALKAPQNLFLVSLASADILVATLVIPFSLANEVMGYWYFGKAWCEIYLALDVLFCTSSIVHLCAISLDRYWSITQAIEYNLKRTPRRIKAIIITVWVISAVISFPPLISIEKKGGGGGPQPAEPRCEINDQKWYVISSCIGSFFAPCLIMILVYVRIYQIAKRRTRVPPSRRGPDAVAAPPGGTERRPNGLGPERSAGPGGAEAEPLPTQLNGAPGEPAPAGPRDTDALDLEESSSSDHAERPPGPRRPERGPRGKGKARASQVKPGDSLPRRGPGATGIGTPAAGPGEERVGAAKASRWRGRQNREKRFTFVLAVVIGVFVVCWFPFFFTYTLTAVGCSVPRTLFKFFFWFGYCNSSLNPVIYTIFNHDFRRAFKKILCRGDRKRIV

[6] = target: Sigma non-opioid intracellular receptor 1 (Homo sapiens, UniProt Q99720); experiment: as §1, with “SIGMAR1” for “ADRA1A”
Sigma non-opioid intracellular receptor 1, sequence (Q99720 whole entry): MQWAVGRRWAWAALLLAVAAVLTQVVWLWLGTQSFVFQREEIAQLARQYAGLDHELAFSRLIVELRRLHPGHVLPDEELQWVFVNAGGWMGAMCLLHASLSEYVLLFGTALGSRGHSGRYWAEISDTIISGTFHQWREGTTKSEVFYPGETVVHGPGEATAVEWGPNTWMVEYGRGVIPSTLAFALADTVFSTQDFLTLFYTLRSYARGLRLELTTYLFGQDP

[7] = target: 5-hydroxytryptamine receptor 1D (Homo sapiens, UniProt P28221); experiment: as §1, with “HTR1D” for “ADRA1A”
5-hydroxytryptamine receptor 1D, sequence (P28221 whole entry): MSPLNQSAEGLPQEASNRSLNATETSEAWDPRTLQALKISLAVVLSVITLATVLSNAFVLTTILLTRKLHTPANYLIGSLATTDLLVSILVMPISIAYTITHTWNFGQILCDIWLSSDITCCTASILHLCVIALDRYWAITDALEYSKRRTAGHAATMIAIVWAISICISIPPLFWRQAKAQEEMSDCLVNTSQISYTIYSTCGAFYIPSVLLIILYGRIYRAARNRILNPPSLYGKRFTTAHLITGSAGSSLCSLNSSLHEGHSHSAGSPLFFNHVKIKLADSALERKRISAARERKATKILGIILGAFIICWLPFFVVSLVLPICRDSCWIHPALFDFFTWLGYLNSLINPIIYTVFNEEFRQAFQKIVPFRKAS

[8] = target: 5-hydroxytryptamine receptor 2B (Homo sapiens, UniProt P41595); experiment: as §1, with “HTR2B” for “ADRA1A”
5-hydroxytryptamine receptor 2B, sequence (P41595 whole entry): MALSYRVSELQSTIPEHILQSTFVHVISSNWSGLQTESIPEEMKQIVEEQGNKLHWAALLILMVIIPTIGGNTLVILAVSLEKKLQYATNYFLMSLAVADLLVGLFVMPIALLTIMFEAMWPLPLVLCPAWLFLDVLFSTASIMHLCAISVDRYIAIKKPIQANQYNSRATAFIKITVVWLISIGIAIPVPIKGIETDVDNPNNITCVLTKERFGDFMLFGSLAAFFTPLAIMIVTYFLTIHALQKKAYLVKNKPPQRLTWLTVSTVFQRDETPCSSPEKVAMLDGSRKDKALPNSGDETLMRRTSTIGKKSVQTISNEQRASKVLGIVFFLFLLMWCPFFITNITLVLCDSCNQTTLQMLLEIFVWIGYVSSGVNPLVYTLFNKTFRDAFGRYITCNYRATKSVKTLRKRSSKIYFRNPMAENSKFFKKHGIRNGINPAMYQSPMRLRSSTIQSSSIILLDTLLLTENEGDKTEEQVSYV

Histamine H1 receptor = Histamine H1 receptor (Homo sapiens, UniProt P35367); experiment: as §1, with “HRH1” for “ADRA1A”
Histamine H1 receptor, sequence (P35367 whole entry): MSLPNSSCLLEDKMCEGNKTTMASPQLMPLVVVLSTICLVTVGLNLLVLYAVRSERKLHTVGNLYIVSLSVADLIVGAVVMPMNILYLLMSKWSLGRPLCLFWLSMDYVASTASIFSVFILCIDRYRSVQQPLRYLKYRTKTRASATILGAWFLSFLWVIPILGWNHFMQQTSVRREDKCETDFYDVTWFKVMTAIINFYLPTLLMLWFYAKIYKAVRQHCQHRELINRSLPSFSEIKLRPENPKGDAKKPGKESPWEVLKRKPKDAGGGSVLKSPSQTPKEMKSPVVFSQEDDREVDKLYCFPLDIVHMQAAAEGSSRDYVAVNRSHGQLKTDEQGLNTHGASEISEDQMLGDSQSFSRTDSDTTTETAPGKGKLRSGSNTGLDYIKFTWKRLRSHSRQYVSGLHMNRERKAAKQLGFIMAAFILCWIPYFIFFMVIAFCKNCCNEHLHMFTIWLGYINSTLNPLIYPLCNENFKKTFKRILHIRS

D(3) dopamine receptor = D(3) dopamine receptor (Homo sapiens, UniProt P35462); experiment: as §1, with “DRD3” for “ADRA1A”
D(3) dopamine receptor, sequence (P35462 whole entry): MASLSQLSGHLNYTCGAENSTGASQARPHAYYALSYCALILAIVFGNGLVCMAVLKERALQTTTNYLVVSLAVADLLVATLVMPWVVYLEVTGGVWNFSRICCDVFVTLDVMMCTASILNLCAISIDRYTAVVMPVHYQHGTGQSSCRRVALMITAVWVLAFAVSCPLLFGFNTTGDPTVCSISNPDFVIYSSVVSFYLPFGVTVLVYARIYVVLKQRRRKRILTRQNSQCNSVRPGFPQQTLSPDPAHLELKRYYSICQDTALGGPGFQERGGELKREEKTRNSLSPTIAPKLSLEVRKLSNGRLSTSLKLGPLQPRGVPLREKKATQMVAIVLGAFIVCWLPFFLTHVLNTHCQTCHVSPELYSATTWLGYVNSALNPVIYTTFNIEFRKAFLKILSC

[9] = target: Sigma intracellular receptor 2 (Homo sapiens, UniProt Q5BJF2); experiment: as §1, with “TMEM97” for “ADRA1A”
Sigma intracellular receptor 2, sequence (Q5BJF2 whole entry): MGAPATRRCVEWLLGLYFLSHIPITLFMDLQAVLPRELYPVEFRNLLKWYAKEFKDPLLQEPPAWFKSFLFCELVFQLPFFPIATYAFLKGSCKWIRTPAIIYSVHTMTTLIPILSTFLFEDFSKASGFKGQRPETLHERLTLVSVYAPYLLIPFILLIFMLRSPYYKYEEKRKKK

[10] = target: 5-hydroxytryptamine receptor 2A (Homo sapiens, UniProt P28223); experiment: as §1, with “HTR2A” for “ADRA1A”
5-hydroxytryptamine receptor 2A, sequence (P28223 whole entry): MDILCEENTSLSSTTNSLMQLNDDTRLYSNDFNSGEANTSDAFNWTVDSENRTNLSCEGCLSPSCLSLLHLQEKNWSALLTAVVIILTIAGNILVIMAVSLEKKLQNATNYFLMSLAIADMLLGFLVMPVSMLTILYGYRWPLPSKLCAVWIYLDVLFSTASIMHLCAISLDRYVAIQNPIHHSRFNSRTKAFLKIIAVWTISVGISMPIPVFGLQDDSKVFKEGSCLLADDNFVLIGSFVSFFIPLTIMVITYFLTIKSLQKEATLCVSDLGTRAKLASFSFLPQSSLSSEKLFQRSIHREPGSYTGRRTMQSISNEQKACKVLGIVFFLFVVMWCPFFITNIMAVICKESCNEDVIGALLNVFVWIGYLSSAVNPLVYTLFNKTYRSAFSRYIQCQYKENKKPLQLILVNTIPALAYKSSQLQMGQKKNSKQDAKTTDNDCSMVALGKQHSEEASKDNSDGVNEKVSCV

[11] = target: 5-hydroxytryptamine receptor 5A (Homo sapiens, UniProt P47898); experiment: as §1, with “HTR5A” for “ADRA1A”
5-hydroxytryptamine receptor 5A, sequence (P47898 whole entry): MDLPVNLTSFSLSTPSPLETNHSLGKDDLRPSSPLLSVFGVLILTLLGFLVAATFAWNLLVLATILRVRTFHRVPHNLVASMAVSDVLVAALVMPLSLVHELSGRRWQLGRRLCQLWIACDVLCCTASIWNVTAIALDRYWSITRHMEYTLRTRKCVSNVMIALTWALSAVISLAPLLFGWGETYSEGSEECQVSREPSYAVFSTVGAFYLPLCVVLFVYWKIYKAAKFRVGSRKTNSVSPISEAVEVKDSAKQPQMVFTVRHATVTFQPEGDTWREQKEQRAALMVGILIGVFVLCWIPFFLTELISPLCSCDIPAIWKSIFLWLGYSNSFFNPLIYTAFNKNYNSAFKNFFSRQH

[12] = target: T6, Muscarinic acetylcholine receptor M5 (Homo sapiens, UniProt P08912); experiment: as §1, with “CHRM5” for “ADRA1A”
T6 sequence (P08912 whole entry): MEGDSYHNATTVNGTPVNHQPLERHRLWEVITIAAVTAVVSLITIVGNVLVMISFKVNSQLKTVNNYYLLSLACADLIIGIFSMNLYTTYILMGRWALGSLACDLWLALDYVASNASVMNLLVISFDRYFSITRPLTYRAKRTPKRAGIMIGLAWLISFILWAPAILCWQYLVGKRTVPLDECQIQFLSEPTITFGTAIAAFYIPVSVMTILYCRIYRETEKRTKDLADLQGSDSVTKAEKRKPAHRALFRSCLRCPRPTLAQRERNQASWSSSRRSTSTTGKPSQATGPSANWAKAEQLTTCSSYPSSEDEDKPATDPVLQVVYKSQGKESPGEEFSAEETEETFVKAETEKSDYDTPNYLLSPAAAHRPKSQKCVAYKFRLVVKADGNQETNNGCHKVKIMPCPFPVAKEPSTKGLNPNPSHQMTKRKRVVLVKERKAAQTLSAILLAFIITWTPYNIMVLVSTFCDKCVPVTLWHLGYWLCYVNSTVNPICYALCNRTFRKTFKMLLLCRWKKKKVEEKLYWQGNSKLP

[13] = target: T7, 5-hydroxytryptamine receptor 1A (Homo sapiens, UniProt P08908); experiment: as §1, with “HTR1A” for “ADRA1A”
T7 sequence (P08908 whole entry): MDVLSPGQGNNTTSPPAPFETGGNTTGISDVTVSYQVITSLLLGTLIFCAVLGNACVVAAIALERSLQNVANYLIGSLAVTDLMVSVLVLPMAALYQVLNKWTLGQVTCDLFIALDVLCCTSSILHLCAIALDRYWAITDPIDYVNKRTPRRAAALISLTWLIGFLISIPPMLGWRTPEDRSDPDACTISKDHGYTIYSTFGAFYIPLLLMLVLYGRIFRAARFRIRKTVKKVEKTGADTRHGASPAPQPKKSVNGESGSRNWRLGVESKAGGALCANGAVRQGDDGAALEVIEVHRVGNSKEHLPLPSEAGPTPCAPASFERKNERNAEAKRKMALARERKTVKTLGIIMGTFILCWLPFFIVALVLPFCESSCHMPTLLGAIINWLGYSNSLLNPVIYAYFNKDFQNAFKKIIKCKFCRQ

[14] = target: 5-hydroxytryptamine receptor 1B (Homo sapiens, UniProt P28222); experiment: as §1, with “HTR1B” for “ADRA1A”
5-hydroxytryptamine receptor 1B, sequence (P28222 whole entry): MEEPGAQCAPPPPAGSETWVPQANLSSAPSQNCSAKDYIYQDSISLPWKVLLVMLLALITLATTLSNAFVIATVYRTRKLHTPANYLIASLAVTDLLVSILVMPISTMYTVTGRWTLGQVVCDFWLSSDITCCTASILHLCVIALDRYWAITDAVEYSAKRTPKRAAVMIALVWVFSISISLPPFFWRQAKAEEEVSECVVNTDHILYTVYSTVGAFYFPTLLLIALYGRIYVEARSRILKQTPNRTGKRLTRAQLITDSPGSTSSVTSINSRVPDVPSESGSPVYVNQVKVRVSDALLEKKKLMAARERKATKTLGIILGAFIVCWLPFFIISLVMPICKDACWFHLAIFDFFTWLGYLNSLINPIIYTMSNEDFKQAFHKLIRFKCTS

[15] = target: 5-hydroxytryptamine receptor 7 (Homo sapiens, UniProt P34969); experiment: as §1, with “HTR7” for “ADRA1A”
5-hydroxytryptamine receptor 7, sequence (P34969 whole entry): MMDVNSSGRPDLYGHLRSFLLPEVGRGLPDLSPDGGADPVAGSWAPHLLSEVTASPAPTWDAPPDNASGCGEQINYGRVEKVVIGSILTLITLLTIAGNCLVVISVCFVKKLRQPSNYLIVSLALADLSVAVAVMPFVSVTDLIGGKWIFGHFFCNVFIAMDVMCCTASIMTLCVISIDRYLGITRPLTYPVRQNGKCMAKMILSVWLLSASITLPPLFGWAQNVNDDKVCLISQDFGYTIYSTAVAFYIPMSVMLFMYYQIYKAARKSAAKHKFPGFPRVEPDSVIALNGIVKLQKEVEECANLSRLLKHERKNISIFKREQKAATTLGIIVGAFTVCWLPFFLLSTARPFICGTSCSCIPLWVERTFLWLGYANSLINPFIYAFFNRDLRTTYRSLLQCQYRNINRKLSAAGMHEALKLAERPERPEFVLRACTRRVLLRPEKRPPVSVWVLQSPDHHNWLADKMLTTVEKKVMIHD

[16] = target: T8, Alpha-2B adrenergic receptor (Homo sapiens, UniProt P18089); experiment: as §1, with “ADRA2B” for “ADRA1A”
T8 sequence (P18089 whole entry): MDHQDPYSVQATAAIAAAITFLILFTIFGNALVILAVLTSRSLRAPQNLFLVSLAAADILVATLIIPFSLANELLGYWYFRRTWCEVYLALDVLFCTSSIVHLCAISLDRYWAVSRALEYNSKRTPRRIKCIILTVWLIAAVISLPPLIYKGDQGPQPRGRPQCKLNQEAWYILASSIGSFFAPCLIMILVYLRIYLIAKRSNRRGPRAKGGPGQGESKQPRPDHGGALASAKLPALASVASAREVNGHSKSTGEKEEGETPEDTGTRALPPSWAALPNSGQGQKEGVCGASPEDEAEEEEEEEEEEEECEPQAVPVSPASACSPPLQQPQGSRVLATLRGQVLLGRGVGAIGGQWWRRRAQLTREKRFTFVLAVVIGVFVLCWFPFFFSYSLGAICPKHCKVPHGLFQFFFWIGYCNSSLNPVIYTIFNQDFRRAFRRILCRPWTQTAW

Row | SMILES | Ki [1] | Ki [2] | Ki [3] | Ki [4] | Ki [5] | Ki [6] | Ki [7] | Ki [8] | Ki (Histamine H1 receptor) | Ki (D(3) dopamine receptor) | Ki [9] | Ki [10] | Ki [11] | Ki [12] | Ki [13] | Ki [14] | Ki [15] | Ki [16]
1 | CCCCN1CCC(COC(=O)c2cc(Cl)c(N)c3c2OCCO3)CC1 | 1850 nM | 635 nM | 1310 nM | 673 nM | 1530 nM | 31.7 nM | 3780 nM | 52 nM | 4660 nM | 669 nM | 64.8 nM | 964 nM |  |  |  |  |  | 
2 | Cc1nn(C)c(C)c1-c1cccc2c1CC[C@H](N(C)C)C2 |  |  | 261 nM |  | 647 nM | 158 nM | 5.5 nM |  |  |  | 1120 nM |  | 75.2 nM | 308 nM | 2420 nM | 10.2 nM | 2.3 nM | 108 nM
